Patent EP0051773A1, “Penicillins, their salts, process for their preparation and pharmaceutical compositions containing them” (Dr. Karl Thomae GmbH, priority 1980, dated 1982)
Converted amounts (≈) assume the structure as drawn.

How the values were obtained:
[1] = tested on: Klebsiella pneumoniae ATCC 10 031; experiment: serial dilution test in microtiter system (bacteriostasis, MIC); type: cell-based; details: ATCC10, liquid medium, 18 to 20 h at 37°C, read-out: MHK-Werte Kl. pneum. ATCC 10 031
Experimental: (§1) Für die Untersuchungen wurde die Methode des Reihenverdünnungstestes im Mikrotitersystem angewandt. Die Prüfung der Substanzen auf Bakteriostase erfolgte in flüssigem Medium. Es wurde die Bakteriostasewirkung bei folgenden Konzentrationen untersucht.
(§2) Es wurde ein Nährboden folgender Zusammensetzung benutzt: 10 g Pepton, 8 g Fleischextrakt-Oxoid, 3 g Natriumschlorid, 2 g sek. Natriumphosphat werden mit dest. Wasser auf 1000 ml aufgefüllt (pH 7,2-7,4). Lediglich bei der Testung gegen Streptokokken wurde 1% Glucose hinzugefügt. Das Alter der Primärkulturen betrug etwa 20 Stunden. Die Einstellung der Keimsuspension erfolgte am Photometer (nach "Eppendorf") (Reagenzglas-Durchmesser 14 mm, Filter 546 nm) anhand der Trübung einer Bariumsulfat-Vergleichssuspension, die durch eine Bariumsulfat-Aufschwemmung erzeugt wurde, welche durch die Zugabe von 3,0 ml 1%ige Bariumchloridlösung in 97 ml 1%ige Schwefelsäure entstand. Nach der Einstellung wurden Streptococcus Aronson im Verhältnis 1:15 und die übrigen Testkeime im Verhältnis 1:1500 mit einer Kochsalzlösung weiter verdünnt.
(§3) 16 mg der jeweiligen Substanz wurden in 10 ml-Meßkolben eingewogen und mit dem Lösungsmittel bis zur Marke aufgefüllt. Die weitere Verdünnungsreihe wurde mit destilliertem Wasser oder dem jeweiligen Lösungsmittel hergestellt.
(§4) Die Vertiefungen der Mikrotiterplatten wurden mit 0,2 ml Nährmedium, 0,01 ml der entsprechenden Substanzverdünnung und mit einem Tropfen Keimsuspension (0,01 ml) beschickt und 18 bis 20 Stunden bei 37°C bebrütet. Eine Lösungsmittelkontrolle wurde stets mitgeführt.
(§5) Die Ablesung wurde makroskopisch vorgenommen, wobei die jeweilige Grenkonzentration (= niedrigste noch bakteriostatisch wirksame Konzentration) ermittelt wurde.
(§6) Als Testorganismen wurden benützt: - Staphylococcus aureus SG 511, Escherichia coli ATCC 11 775, Pseudomonas aeruginosa Hamburgensis und Walter, Serratia marcescens ATCC 13 880, Klebsiella pneumoniae ATCC 10 031 und BC 6, Proteus mirabilis Hamburgensis, Proteus rettgeri BC 7 und Enterobacter cloacae ATCC 13 047.
(§7) In der folgenden Tabelle 2 sind die ermittelten minimalen Hemmkonzentrationen (MIC) für typische Vertreter der erfindungsgemäßen Verbindungen aufgeführt, wobei sich die Ziffern auf die Penicilline der Tabelle 1 Seite 18 beziehen.

[2] = tested on: Escherichia coli ATCC 11 775; experiment: as above; type: cell-based; details: ATCC11, liquid medium, 18 to 20 h at 37°C, read-out: MHK-Werte E.coli ATCC 11 755
Experimental: as §1, §2, §3, §4, §5, §6, §7

[3] = tested on: Enterobacter cloacae ATCC 13 047; experiment: as above; type: cell-based; details: ATCC13, liquid medium, 18 to 20 h at 37°C, read-out: MHK-Werte Eb. cloacae 13 047
Experimental: as §1, §2, §3, §4, §5, §6, §7

[4] = tested on: Proteus mirabilis Hamburgensis; experiment: as above; type: cell-based; details: liquid medium, 18 to 20 h at 37°C, read-out: MHK-Werte Prot. mir. Hbg.
Experimental: as §1, §2, §3, §4, §5, §6, §7

[5] = tested on: Pseudomonas aeruginosa Walter; experiment: as above; type: cell-based; details: liquid medium, 18 to 20 h at 37°C, read-out: MHK-Werte Pseud. aerug. Walter
Experimental: as §1, §2, §3, §4, §5, §6, §7

[6] = tested on: Proteus rettgeri BC 7; experiment: as above; type: cell-based; details: Providencia rettgeri, BC7; liquid medium, 18 to 20 h at 37°C; read-out: MHK-Werte Prot. rettg. BC 7
Experimental: as §1, §2, §3, §4, §5, §6, §7

[7] = tested on: Pseudomonas aeruginosa Hamburgensis; experiment: as above; type: cell-based; details: liquid medium, 18 to 20 h at 37°C, read-out: MHK-Werte Pseud. aerug. Hbg.
Experimental: as §1, §2, §3, §4, §5, §6, §7

[8] = tested on: Klebsiella pneumoniae BC 6; experiment: as above; type: cell-based; details: BC6, liquid medium, 18 to 20 h at 37°C, read-out: MHK-Werte Kl. pneum. BC 6
Experimental: as §1, §2, §3, §4, §5, §6, §7

[9] = tested on: Serratia marcescens ATCC 13 880; experiment: as above; type: cell-based; details: ATCC13, liquid medium, 18 to 20 h at 37°C, read-out: MHK-Werte Serr. marcesc. ATCC 13 880
Experimental: as §1, §2, §3, §4, §5, §6, §7

[10] = tested on: Staphylococcus aureus SG 511; experiment: as above; type: cell-based; details: SG511, liquid medium, 18 to 20 h at 37°C, read-out: MHK-Werte Staph. aureus SG 511
Experimental: as §1, §2, §3, §4, §5, §6, §7

[11] = tested on: Pseudomonas aeruginosa Walter; experiment: experimental intraperitoneal infection in mice, ED50 (survival); type: in vivo, Mäuse; details: sc, 168 h, female NMRI mice, i.p. infection, s.c. application, treated three times, 7 days observation, read-out: ED50 Pseud. aerug. Walter
Experimental: (§8) Eine Reihe der erfindungsgemäßen Verbindungen wurde in vivo bei experimentellen Infektionen an Mäusen untersucht. Man verwendete als pathogene Bakterien E.coli ATCC 11 775 und Pseudomonas aeruginosa Walter. Es wurde eine intraperitoneale Infektion mit 0,2 ml einer 5%igen Mucinsuspension der Bakterien gesetzt. Dies entspricht etwa 2x10^6 Keime E.coli bzw. 8x10^5 Keime Pseudomonas/Maus. Weibliche Mäuse vom Stamm NMRI wurden in Gruppen von jeweils 10 Tieren aufgeteilt, zwei Gruppen blieben unbehandelt, die restlichen Gruppen wurden mit verschiedenen Dosen der jeweiligen erfindungsgemäßen Penicilline zur Bestimmung der ED50 (Dosis, bei der 50 % der Tiere überleben) behandelt. Bei der E.coli-Infektion wurde einmal therapiert. Bei der Pseudomonas-Infektion wurde dreimal behandelt.
(§9) Der Beobachtungszeitraum betrug in beiden Fällen 7 Tage. Die Ergebnisse dieser Teste mit repräsentativen Vertretern der erfindungsgemäßen Penicilline sind in der Tabelle 3 dargestellt.

[12] = tested on: E.coli ATCC 11 775; experiment: as above; type: in vivo, Mäuse; details: Escherichia coli, ATCC 11 / ATCC 1175, sc, 168 h; female NMRI mice, i.p. infection, s.c. application, treated once, 7 days observation
Experimental: as §8, §9

Row | MIC [1] [µg/mL] | MIC [2] [µg/mL] | MIC [3] [µg/mL] | MIC [4] [µg/mL] | MIC [5] [µg/mL] | MIC [6] [µg/mL] | MIC [7] [µg/mL] | MIC [8] [µg/mL] | MIC [9] [µg/mL] | MIC [10] [µg/mL] | SMILES | ED50 [11] [mg/kg] | ED50 [12] [mg/kg]
1 | 0.5 (≈ 0.743 µM) | 0.12 (≈ 0.178 µM) | 1 (≈ 1.49 µM) | 0.06 (≈ 0.0892 µM) | 0.5 (≈ 0.743 µM) | 0.25 (≈ 0.372 µM) | 1 (≈ 1.49 µM) | 1 (≈ 1.49 µM) | 0.12 (≈ 0.178 µM) | 0.12 (≈ 0.178 µM) | CC1(C)SC2C(NC(=O)C(NC(=O)Nc3cnc(Nc4ccc(S(N)(=O)=O)c(O)c4)nc3O)c3ccccc3)C(=O)N2C1C(=O)O (stereo not drawn) [Verbindung 45] | 5.2 | 3.2
2 | 4 (≈ 5.97 µM) | 0.5 (≈ 0.747 µM) | 4 (≈ 5.97 µM) | 0.12 (≈ 0.179 µM) | 2 (≈ 2.99 µM) | 1 (≈ 1.49 µM) | 2 (≈ 2.99 µM) | 8 (≈ 11.9 µM) | 1 (≈ 1.49 µM) | 0.5 (≈ 0.747 µM) | C[S+]([O-])c1ccc(CNc2ncc(NC(=O)NC(C(=O)N[C@@H]3C(=O)N4[C@@H]3SC(C)(C)[C@@H]4C(=O)O)c3ccc(O)cc3)c(O)n2)cc1 (stereo partly drawn) [Verbindung 62] | 18.3 | 5.9
3 | 4 (≈ 5.82 µM) | 0.12 (≈ 0.175 µM) | 2 (≈ 2.91 µM) | 0.06 (≈ 0.0874 µM) | 1 (≈ 1.46 µM) | 0.5 (≈ 0.728 µM) | 2 (≈ 2.91 µM) | 4 (≈ 5.82 µM) | 0.25 (≈ 0.364 µM) | 0.25 (≈ 0.364 µM) | CC1(C)S[C@@H]2[C@H](NC(=O)C(NC(=O)Nc3cnc(NCc4ccc(S(N)(=O)=O)cc4)nc3O)c3ccc(O)cc3)C(=O)N2[C@H]1C(=O)O (stereo partly drawn) [Verbindung 64] | 12.4 | 2.4

The remaining lines, values behind:

Row | SMILES | MIC [1] [µg/mL] | MIC [2] [µg/mL] | MIC [3] [µg/mL] | MIC [4] [µg/mL] | MIC [5] [µg/mL] | MIC [6] [µg/mL] | MIC [7] [µg/mL] | MIC [8] [µg/mL] | MIC [9] [µg/mL] | MIC [10] [µg/mL] | ED50 [11] [mg/kg] | ED50 [12] [mg/kg]
4 | CNC(=O)c1ccc(Nc2ncc(NC(=O)NC(C(=O)NC3C(=O)N4C3SC(C)(C)C4C(=O)O)c3ccc(O)cc3)c(O)n2)cc1 (stereo not drawn) [Verbindung 37] | 2 (≈ 3.07 µM) | 0.25 (≈ 0.384 µM) | 1 (≈ 1.54 µM) | 0.06 (≈ 0.0922 µM) | 1 (≈ 1.54 µM) | 0.5 (≈ 0.768 µM) | 1 (≈ 1.54 µM) | 2 (≈ 3.07 µM) | 0.25 (≈ 0.384 µM) | 0.5 (≈ 0.768 µM) | 8 | 2.8
5 | CC1(C)SC2C(NC(=O)C(NC(=O)Nc3cnc(Nc4ccc(S(N)(=O)=O)c(O)c4)nc3O)c3ccc(O)cc3)C(=O)N2C1C(=O)O (stereo not drawn) [Verbindung 44] | 1 (≈ 1.45 µM) | 0.12 (≈ 0.174 µM) | 0.5 (≈ 0.726 µM) | 0.03 (≈ 0.0436 µM) | 0.5 (≈ 0.726 µM) | 0.25 (≈ 0.363 µM) | 0.5 (≈ 0.726 µM) | 1 (≈ 1.45 µM) | 0.12 (≈ 0.174 µM) | 0.25 (≈ 0.363 µM) | 3.6 | 2.1
